Laboratory results: patent US20040220268A1, “Compound that directly stimulates phospholipase C activity” (priority 2003, published 2004)

Target: T1, PLC γ2 (Homo sapiens, UniProt P16885)
T1 sequence (P16885 1-1265): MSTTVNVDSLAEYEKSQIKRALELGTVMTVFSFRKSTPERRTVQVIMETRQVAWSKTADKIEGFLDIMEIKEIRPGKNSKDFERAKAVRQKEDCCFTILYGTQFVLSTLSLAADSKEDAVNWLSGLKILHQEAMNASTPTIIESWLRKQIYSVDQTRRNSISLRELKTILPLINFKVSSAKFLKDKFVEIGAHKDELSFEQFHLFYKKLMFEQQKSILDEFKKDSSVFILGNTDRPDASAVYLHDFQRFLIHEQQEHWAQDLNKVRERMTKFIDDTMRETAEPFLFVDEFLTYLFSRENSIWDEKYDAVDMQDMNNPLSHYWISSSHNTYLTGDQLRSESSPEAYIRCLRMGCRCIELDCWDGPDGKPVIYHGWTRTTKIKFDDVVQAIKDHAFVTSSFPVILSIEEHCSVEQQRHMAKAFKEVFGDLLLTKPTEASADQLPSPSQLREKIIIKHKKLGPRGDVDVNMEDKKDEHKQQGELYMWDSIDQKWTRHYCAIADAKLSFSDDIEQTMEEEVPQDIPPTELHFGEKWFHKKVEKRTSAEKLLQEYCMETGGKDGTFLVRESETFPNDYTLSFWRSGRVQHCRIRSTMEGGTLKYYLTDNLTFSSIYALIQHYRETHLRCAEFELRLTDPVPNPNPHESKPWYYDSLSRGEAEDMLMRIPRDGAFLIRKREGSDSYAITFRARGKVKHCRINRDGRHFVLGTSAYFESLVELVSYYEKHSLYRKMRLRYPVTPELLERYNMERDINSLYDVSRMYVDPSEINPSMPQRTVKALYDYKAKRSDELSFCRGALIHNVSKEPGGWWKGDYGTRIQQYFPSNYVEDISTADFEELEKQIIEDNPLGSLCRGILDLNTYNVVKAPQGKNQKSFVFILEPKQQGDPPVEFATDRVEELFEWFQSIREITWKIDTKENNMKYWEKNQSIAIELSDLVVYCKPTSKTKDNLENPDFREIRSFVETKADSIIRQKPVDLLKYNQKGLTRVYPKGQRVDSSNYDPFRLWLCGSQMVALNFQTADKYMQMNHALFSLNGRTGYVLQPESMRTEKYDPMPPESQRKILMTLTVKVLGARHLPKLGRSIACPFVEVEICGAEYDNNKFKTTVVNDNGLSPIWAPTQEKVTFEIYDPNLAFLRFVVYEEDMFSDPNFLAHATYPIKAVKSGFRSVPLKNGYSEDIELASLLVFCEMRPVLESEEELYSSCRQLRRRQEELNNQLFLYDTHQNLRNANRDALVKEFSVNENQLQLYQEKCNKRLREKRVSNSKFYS
Experiment: Phosphoinositide hydrolysis in vitro
Format: biochemical
Conditions: 25 μM; purified isozyme
Experimental: The hydrolyzing activity of PtdIns-4,5-P2 was measured on mixed phospholipid vesicles containing 120 μM phosphatidylethanolamine, 30 μM PtdIns-4,5-P2, and 1 μCi/ml [3H] PtdIns-4,5-P2. Purified PLC β2, substrates, and the chemicals (2.5, 5, 10, 20, and 25 μM of m-3M3FBS or of o-3M3FBS) were coincubated (A), 25 μM of m-3M3FBS or o-3M3FBS, and phospholipid substrates were mixed with purified PLC β3, γ1, 2, or δ1 (B). Reactions were performed for 10 min at 37° C. in a 200 μl reaction mixture containing lipid micelles (5 μM [^3H] PtdIns-4,5-P2, 20,000 cpm). Reactions were stopped by adding 1 ml of CHCl3:CH3OH:HCl (50:50:0.3, v/v/v). Inositol trisphosphates were extracted with 0.5 ml of 1 M HCl/5 mM EGTA, and the radioactivity in the upper aqueous phase was measured. Data are presented as means ±S. E. M. of three independent experiments (A, B).
PLC activity was assayed using [^3H] PtdIns-4,5-P2 as a substrate (Min et al., 1993). PtdIns-4,5-P2-hydrolyzing activity was measured with mixed phospholipid micelles containing 120 μM phosphatidylethanolamine, 30 μM PtdIns-4,5-P2, and 1 μCi/ml [^3H] PtdIns-4,5-P2. The lipids, in chloroform, were dried under a stream of nitrogen gas, suspended in assay buffer (20 mM HEPES pH 7.0, 120 mM NaCl, 2 mM MgCl2, 40 or 100 μM CaCl2, and 1 mg/ml bovine albumin serum (Bayer, Leverkusen, Germany)), and sonicated. All proteins added to the reaction mixture were dialyzed overnight against the assay buffer. Incubation was performed for 10 min at 37° C. in a 200 μl reaction mixture containing lipid micelles (5 μM [3H] PtdIns-4,5-P2, 20,000 cpm). The reaction was stopped by adding 2 ml of CHCl3: CH3OH: HCl (50: 50: 0.3, v/v/v). The inositol triphosphates were extracted with 0.5 ml of 1 N HCl, and radioactivities in the upper aqueous phase were measured.

SMILES | activity of PLC gamma2
Cc1cc(C)c(S(=O)(=O)Nc2cccc(C(F)(F)F)c2)c(C)c1 [m-3M3FBS, 2,4,6-Trimethyl-N-(meta 3-trifluoromethyl-phenyl)-benzenesulfonamide] | augmented the activity
Cc1cc(C)c(S(=O)(=O)Nc2ccccc2C(F)(F)F)c(C)c1 [o-3M3FBS, 2,4,6-Trimethyl-N-(ortho 3-trifluoromethyl-phenyl)-benzenesulfonamide, reference compound] | did not affect
